Measured values from patent US9604973B2, “Anti-cancer polyketide compounds” (priority 2012, dated 2017).

Experiment: Hydrolysis, NMR monitoring
Assay type: physicochemical
Conditions: neutral conditions; 10 mM in D2O/DMSO-d6 (10:1) at 37° C.
Procedure: FIG. 18A-18B: Hydrolysis of FD-895 (1a). FIG. 18A) NMR monitoring of the incubation of 10 mM 1a in D2O/DMSO-d6 (10:1) at 37° C. Hydrolysis occurs as marked by a shift of the C11 proton (large to small circles). Assignments of 3a, 3b and 3c were made based on coupling constant and gCOSY analyses. FIG. 18B) LdC-HRMS trace depicting the products at 143 h including acids 3a-3c (mass calcd. for C31H52O10Na=607.3453 m/z) along with unhydrolized 1a (mass calcd. for C31H50O9Na=589.3347 m/z). Exact masses [M+Na]^+ are provided for each peak.
Based on this observation, we turned our efforts to apply conventional SAR techniques to identify analogs with improved stability.

With `CCC(OC)C(C)C1OC1C(O)C(C)/C=C/C=C(\C)C1OC(=O)CC(O)CCC(C)(O)C(OC(C)=O)/C=C/C1C` (stereo not shown) [FD-895] the hydrolysis was “undergoes hydrolysis under neutral conditions”.
